# In PMC10893103, “Cyclodextrin-Enabled Enantioselective Complexation Study of Cathinone Analogs” (Molecules, 2024):
# Assay: Affinity capillary electrophoresis (ACE), pH 7.4
# Details: 30 mM phosphate buffer pH 7.4, 25 °C, 15 kV
# Text: To assess the CD complex formation capability of the five cathinone derivatives, we devised a screening ACE method tailored to closely mimic physiological conditions. In a preliminary study, the ACE conditions were optimized regarding the type, pH, and concentration of the background electrolyte, the applied voltage, and the injection parameters. […] In order to avoid high Joule heat generation, sufficiently low voltage should be used; thus, after registering the Ohm plot (I-U plot), it was set to 15 kV. Throughout our ACE measurements, corrections for viscosity and ionic strength were systematically implemented to ensure precise determination of complex stability constants.
# The CE experiments were performed on a HP ^3DCE and on an Agilent 7100 instrument (Agilent Technologies, Waldbronn, Germany) equipped with a photodiode array detector and the Chemstation software for data handling. Untreated fused silica capillaries (50 µm id, 48.5 cm total, 40 cm effective length) were purchased from Agilent. Conditioning of new capillary was conducted by flushing with 1 M NaOH followed by 0.1 M NaOH and water for 30 min each. Prior to all runs, the capillary was preconditioned by rinsing with BGE (2 min). The temperature of the capillary was set to 25 °C. UV detection was performed at 215 nm, and 15–25 kV voltage was applied. Samples were injected hydrodynamically (150 mbar·sec, optimized in the 50–500 mbar·sec range). The CE-pH measurements were carried out applying 25 kV voltage and 200 mbar·sec injection.
# The background electrolyte of the CE-pH measurements contained 25 mM Na2HPO4 and 25 mM Na2B4O7, and the appropriate pH was adjusted with hydrochloric acid. During the ACE measurements, 30 mM phosphate buffer pH 7.4 (30 mM Na2HPO4—NaOH) was used. The running buffer was 20 mM acetic acid adjusting with 1 M Tris the pH to 4.5 during the chiral screening experiments. The BGEs contained CDs at various concentrations (0.25–20 mM) in the ACE experiments and 1-5-10 mM in the chiral method optimization experiments.
# Stock solutions of each cathinone analog (mephedrone, flephedrone, 4-MEC, butylone, and MDPV) were prepared separately in methanol (1 mg/ml), and appropriate dilutions with water were used to prepare sample solutions for the CE-pH titration and for the ACE studies applying DMSO as EOF marker, while their mixture was used during the chiral separation studies.
# The simplest way to determine the mobility is from the migration times (tmax) read from the electropherograms from which the apparent mobility could be calculated, but more accurate mobility values could be obtained by the determination with the Haarhoff–van der Linde (HVL) function based on Equation (2). (2) HVLδ(t;a0,a1,a2,a3δ)=a0/a2a3δ2πexp[−1/2(t−a1/a2)^2]/1/exp(a3δ)−1+1/2[1+erf(t−a1/2a2)] where a0 is the area of the HVL function, a1 is the position of the Gaussian component, a2 is the standard deviation of the Gaussian component, and a3δ is the peak shape distortion. The application of the HVL function is necessary in the case of accurate ACE measurements because, in several cases, the peaks are distorted due to the complex formation, which makes reading the migration times and calculating the mobility more difficult and imprecise.
# The most popular technique for quantifying the analyte–ligand interaction with CE is mobility shift ACE.
Compound,"4-MEC–CD complex stability constant, Kstab/Kstab1 (unresolved or first migrating enantiomer)","Butylone–CD complex stability constant, Kstab2 (second migrating enantiomer)","Butylone–CD complex stability constant, Kstab/Kstab1 (unresolved or first migrating enantiomer)","Flephedrone–CD complex stability constant, Kstab/Kstab1 (unresolved or first migrating enantiomer)","MDPV–CD complex stability constant, Kstab/Kstab1 (unresolved or first migrating enantiomer)","Mephedrone–CD complex stability constant, Kstab2 (second migrating enantiomer)","Mephedrone–CD complex stability constant, Kstab/Kstab1 (unresolved or first migrating enantiomer)","4-MEC–CD complex stability constant, Kstab2 (second migrating enantiomer)","Flephedrone–CD complex stability constant, Kstab2 (second migrating enantiomer)","MDPV–CD complex stability constant, Kstab2 (second migrating enantiomer)"
sulfobutyl-ether-γ-CD [SBE-γ-CD],< 10 M⁻¹,100 ± 15 M⁻¹,95 ± 15 M⁻¹,100 ± 5 M⁻¹,160 ± 20 M⁻¹,65 ± 12 M⁻¹,70 ± 15 M⁻¹,,,
sulfated-γ-CD [S-γ-CD],290 ± 30 M⁻¹,,960 ± 95 M⁻¹,,250 ± 55 M⁻¹,,160 ± 15 M⁻¹,,,
sulfobutyl-ether-β-CD [SBE-β-CD (DS~6.5)],560 ± 35 M⁻¹,,,200 ± 20 M⁻¹,,500 ± 40 M⁻¹,500 ± 20 M⁻¹,660 ± 35 M⁻¹,200 ± 12 M⁻¹,
hydroxypropylated-β-CD [HP-β-CD],80 ± 5 M⁻¹,,170 ± 10 M⁻¹,15 ± 3 M⁻¹,255 ± 10 M⁻¹,,60 ± 4 M⁻¹,,,
acetylated-β-CD [Ac-β-CD],150 ± 15 M⁻¹,380 ± 30 M⁻¹,290 ± 30 M⁻¹,100 ± 14 M⁻¹,310 ± 30 M⁻¹,,220 ± 20 M⁻¹,,,240 ± 20 M⁻¹
hydroxypropylated-γ-CD [HP-γ-CD],40 ± 4 M⁻¹,,40 ± 5 M⁻¹,220 ± 35 M⁻¹,50 ± 10 M⁻¹,,25 ± 3 M⁻¹,,,
OC[C@H]1O[C@@H]2O[C@H]3[C@H](O)[C@@H](O)[C@@H](O[C@H]4[C@H](O)[C@@H](O)[C@@H](O[C@H]5[C@H](O)[C@@H](O)[C@@H](O[C@H]6[C@H](O)[C@@H](O)[C@@H](O[C@H]7[C@H](O)[C@@H](O)[C@@H](O[C@H]8[C@H](O)[C@@H](O)[C@@H](O[C@H]9[C@H](O)[C@@H](O)[C@@H](O[C@H]1[C@H](O)[C@H]2O)O[C@@H]9CO)O[C@@H]8CO)O[C@@H]7CO)O[C@@H]6CO)O[C@@H]5CO)O[C@@H]4CO)O[C@@H]3CO [γ-CD],90 ± 15 M⁻¹,,30 ± 3 M⁻¹,125 ± 10 M⁻¹,100 ± 10 M⁻¹,,60 ± 10 M⁻¹,,,
"COC[C@H]1O[C@@H]2O[C@H]3[C@H](OC)[C@@H](OC)[C@@H](O[C@H]4[C@H](OC)[C@@H](OC)[C@@H](O[C@H]5[C@H](OC)[C@@H](OC)[C@@H](O[C@H]6[C@H](OC)[C@@H](OC)[C@@H](O[C@H]7[C@H](OC)[C@@H](OC)[C@@H](O[C@H]8[C@H](OC)[C@@H](OC)[C@@H](O[C@H]9[C@H](OC)[C@@H](OC)[C@@H](O[C@H]1[C@H](OC)[C@H]2OC)O[C@@H]9COC)O[C@@H]8COC)O[C@@H]7COC)O[C@@H]6COC)O[C@@H]5COC)O[C@@H]4COC)O[C@@H]3COC [TRIME-γ-CD, permethylated-γ-CD]",20 ± 4 M⁻¹,,25 ± 10 M⁻¹,< 10 M⁻¹,45 ± 14 M⁻¹,,< 10 M⁻¹,,,
carboxymethylated-α-CD [CM-α-CD],150 ± 15 M⁻¹,90 ± 12 M⁻¹,110 ± 12 M⁻¹,75 ± 9 M⁻¹,240 ± 20 M⁻¹,110 ± 20 M⁻¹,90 ± 20 M⁻¹,150 ± 15 M⁻¹,90 ± 15 M⁻¹,340 ± 20 M⁻¹
carboxymethylated-γ-CD [CM-γ-CD],65 ± 8 M⁻¹,170 ± 10 M⁻¹,140 ± 10 M⁻¹,50 ± 9 M⁻¹,160 ± 15 M⁻¹,60 ± 10 M⁻¹,50 ± 8 M⁻¹,70 ± 10 M⁻¹,30 ± 5 M⁻¹,170 ± 17 M⁻¹
sulfopropylated-β-CD [SP-β-CD (DS~4)],620 ± 65 M⁻¹,,,120 ± 12 M⁻¹,,450 ± 65 M⁻¹,500 ± 65 M⁻¹,,,
"OCCCNC[C@H]1O[C@@H]2O[C@H]3[C@H](O)[C@@H](O)[C@@H](O[C@H]4[C@H](O)[C@@H](O)[C@@H](O[C@H]5[C@H](O)[C@@H](O)[C@@H](O[C@H]6[C@H](O)[C@@H](O)[C@@H](O[C@H]7[C@H](O)[C@@H](O)[C@@H](O[C@H]8[C@H](O)[C@@H](O)[C@@H](O[C@H]1[C@H](O)[C@H]2O)O[C@@H]8CO)O[C@@H]7CO)O[C@@H]6CO)O[C@@H]5CO)O[C@@H]4CO)O[C@@H]3CO [HPA-β-CD, mono-6^A-(3-hydroxy)propylamino-β-CD]",145 ± 15 M⁻¹,,85 ± 15 M⁻¹,500 ± 105 M⁻¹,840 ± 65 M⁻¹,,140 ± 35 M⁻¹,,,570 ± 80 M⁻¹
